This note sets out measurements from patent US11739098B2 (BRISTOL-MYERS SQUIBB COMPANY, priority 2017, dated 2023).

Each structure is given as a SMILES string.

Format in all cases: cell-based
One assay deals with T1, human TLR8 (Homo sapiens, UniProt Q9NR97).
T1 construct: host or cells: HEK-Blue cells (HEK293-derived reporter line)
T1 sequence (Q9NR97 27-1041): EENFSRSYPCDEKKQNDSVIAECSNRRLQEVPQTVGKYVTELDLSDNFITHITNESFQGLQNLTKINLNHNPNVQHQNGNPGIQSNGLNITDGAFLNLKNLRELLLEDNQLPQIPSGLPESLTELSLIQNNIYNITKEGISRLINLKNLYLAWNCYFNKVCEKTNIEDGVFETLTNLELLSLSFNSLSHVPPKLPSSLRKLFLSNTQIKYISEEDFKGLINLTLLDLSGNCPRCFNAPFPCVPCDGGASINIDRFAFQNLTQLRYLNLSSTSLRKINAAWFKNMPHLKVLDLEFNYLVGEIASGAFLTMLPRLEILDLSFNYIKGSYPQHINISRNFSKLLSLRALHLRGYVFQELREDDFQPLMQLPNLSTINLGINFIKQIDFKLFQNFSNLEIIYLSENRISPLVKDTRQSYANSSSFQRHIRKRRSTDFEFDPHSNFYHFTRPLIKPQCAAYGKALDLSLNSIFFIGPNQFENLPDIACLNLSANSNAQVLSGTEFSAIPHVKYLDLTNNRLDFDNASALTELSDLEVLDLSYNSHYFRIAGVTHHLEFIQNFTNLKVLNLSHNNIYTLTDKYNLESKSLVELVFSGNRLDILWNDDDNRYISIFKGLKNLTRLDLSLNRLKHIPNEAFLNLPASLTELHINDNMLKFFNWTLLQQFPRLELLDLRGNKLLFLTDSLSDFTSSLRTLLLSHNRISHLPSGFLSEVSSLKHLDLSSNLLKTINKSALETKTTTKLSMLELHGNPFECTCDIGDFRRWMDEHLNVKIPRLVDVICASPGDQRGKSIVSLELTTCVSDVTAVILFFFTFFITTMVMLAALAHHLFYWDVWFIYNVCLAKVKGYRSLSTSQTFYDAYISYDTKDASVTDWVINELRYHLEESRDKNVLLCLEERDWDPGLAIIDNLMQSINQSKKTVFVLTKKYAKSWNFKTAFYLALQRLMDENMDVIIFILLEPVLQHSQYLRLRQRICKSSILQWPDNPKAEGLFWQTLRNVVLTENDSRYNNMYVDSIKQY
The assay is described as follows: TLR8 inhibition reporter assay (HEK-Blue cells, SEAP reporter, R848 stimulation). The conditions noted are these: HEK-Blue cells overexpressing human TLR8, SEAP reporter, R848 15.9 μM. The gist of the method:
(§1)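 Cells seeded per well (15000 TLR7, 20,000 TLR8, 25,000 TLR9); compound added over 0.05 nM–50 μM for 30 min at room temperature; agonist added (TLR7 gardiquimod 7.5 μM, TLR8 R848 15.9 μM, TLR9 ODN2006 5 nM); 22 h at 37 °C; SEAP measured; percent inhibition calculated.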

A further assay has as its target T2, human TLR7 (Homo sapiens, UniProt Q9NYK1).
T2 construct: host or cells: HEK-Blue cells (HEK293-derived reporter line)
T2 sequence (Q9NYK1 27-1049): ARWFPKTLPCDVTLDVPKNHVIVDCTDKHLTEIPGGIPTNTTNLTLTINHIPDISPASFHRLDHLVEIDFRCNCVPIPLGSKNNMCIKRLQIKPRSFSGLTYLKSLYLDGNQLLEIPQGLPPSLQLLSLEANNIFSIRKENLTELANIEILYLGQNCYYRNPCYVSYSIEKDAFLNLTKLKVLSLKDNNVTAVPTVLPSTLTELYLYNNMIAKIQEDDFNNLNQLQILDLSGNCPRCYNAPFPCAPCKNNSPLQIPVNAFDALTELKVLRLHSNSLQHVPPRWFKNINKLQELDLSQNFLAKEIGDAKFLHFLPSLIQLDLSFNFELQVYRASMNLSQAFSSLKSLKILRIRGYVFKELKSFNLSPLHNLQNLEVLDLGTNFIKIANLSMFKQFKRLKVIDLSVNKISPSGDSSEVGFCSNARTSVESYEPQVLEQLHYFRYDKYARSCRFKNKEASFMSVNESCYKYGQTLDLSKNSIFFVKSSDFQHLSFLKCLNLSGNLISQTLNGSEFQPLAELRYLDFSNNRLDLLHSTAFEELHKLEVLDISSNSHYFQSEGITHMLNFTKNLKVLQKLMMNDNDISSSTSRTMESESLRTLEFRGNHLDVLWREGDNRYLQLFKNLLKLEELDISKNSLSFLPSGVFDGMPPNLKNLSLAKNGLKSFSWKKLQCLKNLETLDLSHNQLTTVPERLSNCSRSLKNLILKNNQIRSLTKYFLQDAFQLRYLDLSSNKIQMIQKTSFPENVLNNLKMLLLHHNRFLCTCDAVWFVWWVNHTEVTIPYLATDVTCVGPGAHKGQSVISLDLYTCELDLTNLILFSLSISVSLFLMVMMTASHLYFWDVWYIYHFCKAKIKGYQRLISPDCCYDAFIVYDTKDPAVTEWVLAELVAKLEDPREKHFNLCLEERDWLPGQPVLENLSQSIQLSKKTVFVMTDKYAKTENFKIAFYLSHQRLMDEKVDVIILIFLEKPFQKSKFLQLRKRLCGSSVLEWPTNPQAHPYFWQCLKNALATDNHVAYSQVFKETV
The assay can be described thus: TLR7 inhibition reporter assay (HEK-Blue cells, SEAP reporter, gardiquimod stimulation). The conditions noted are these: HEK-Blue cells overexpressing human TLR7, SEAP reporter, gardiquimod 7.5 μM. The gist of the method: as §1

The target in the next assay is T3, human TLR9 (Homo sapiens, UniProt Q9NR96).
T3 construct: host or cells: HEK-Blue cells (HEK293-derived reporter line)
T3 sequence (Q9NR96 26-1032): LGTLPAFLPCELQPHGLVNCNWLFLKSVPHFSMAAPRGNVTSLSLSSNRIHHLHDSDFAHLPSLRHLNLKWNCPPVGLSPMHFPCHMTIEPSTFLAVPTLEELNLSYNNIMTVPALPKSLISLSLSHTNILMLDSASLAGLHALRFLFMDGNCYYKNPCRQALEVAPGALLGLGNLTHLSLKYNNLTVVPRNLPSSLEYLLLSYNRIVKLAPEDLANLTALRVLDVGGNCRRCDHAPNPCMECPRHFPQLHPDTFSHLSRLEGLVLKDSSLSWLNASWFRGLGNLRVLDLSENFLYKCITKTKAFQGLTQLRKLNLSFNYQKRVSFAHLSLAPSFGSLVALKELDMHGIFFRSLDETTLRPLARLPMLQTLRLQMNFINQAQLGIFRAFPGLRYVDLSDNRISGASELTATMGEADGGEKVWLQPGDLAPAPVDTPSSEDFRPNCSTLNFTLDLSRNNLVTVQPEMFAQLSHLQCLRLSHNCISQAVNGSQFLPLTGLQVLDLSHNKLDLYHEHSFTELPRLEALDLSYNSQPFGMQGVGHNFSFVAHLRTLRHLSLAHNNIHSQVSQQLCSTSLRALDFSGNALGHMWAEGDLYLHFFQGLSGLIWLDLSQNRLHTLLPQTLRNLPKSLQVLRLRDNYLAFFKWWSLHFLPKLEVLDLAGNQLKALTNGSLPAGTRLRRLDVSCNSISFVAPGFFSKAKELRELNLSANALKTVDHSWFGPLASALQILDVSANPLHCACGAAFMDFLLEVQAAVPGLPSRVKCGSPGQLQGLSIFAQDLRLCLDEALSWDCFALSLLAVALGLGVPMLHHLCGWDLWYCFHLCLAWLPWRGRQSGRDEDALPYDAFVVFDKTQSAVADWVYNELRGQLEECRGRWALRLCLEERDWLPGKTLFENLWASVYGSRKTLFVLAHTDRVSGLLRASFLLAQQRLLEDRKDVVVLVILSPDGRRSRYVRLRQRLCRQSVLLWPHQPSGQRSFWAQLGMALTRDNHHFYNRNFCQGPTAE
The assay can be described thus: TLR9 inhibition reporter assay (HEK-Blue cells, SEAP reporter, ODN2006 stimulation). The conditions noted are these: HEK-Blue cells overexpressing human TLR9, SEAP reporter, ODN2006 5 nM. The gist of the method:
as §1

Regarding `CC(C)c1c(-c2cnc3c(cnn3C)c2)[nH]c2ccc(C3CCN(CC(C)(C)O)CC3)cc12` [Example 764, 1-(4-(3-isopropyl-2-(1-methyl-1H-pyrazolo[3,4-b]pyridin-5-yl)-1H-indol-5-yl)piperidin-1-yl)-2-methylpropan-2-ol], the half-maximal inhibitory concentration (IC50) on human TLR8 was under 100 nM; against human TLR7, under 100 nM; at human TLR9, 1000 to 50000 nM.

Consider `CNCCN1CCC(c2ccc3[nH]c(-c4ccnc5[nH]ccc45)c(C)c3c2)CC1` [Example 668, N-methyl-2-(4-(3-methyl-2-(1H-pyrrolo[2,3-b]pyridin-4-yl)-1H-indol-5-yl)piperidin-1-yl)ethan-1-amine], for which the half-maximal inhibitory concentration (IC50) on human TLR8 is under 100 nM; against human TLR7, 100 to 1000 nM; against human TLR9, 100 to 1000 nM.

As to `CC(C)c1c(-c2nc3ccnn3cc2F)[nH]c2ccc(C3CCNCC3)cc12` [Example 147, 6-fluoro-5-(3-isopropyl-5-(piperidin-4-yl)-1H-indol-2-yl)pyrazolo[1,5-a]pyrimidine], the figures for the half-inhibitory concentration (IC50) against human TLR8, on human TLR7 and at human TLR9 were under 100 nM, under 100 nM and 1000 to 50000 nM, respectively.

Regarding `Cc1cc(-c2[nH]c3ccc(C4CCNCC4)cc3c2C(C)C)cc2c1oc(=O)n2C` [Example 90, 5-(3-isopropyl-5-(piperidin-4-yl)-1H-indol-2-yl)-3,7-dimethylbenzo[d]oxazol-2(3H)-one], the IC50 against human TLR8 is 100 to 1000 nM; against human TLR7, under 100 nM; against human TLR9, 1000 to 50000 nM.

Regarding `CNC(=O)CN1CCC(c2ccc3[nH]c(-c4cc(Cl)c5ncccc5c4)c(C(C)C)c3c2)CC1` [Example 381, 2-(4-(2-(8-chloroquinolin-6-yl)-3-isopropyl-1H-indol-5-yl)piperidin-1-yl)-N-methylacetamide], the IC50 against human TLR8 is 100 to 1000 nM; against human TLR7, under 100 nM; against human TLR9 it was 1000 to 50000 nM.

In the case of `COc1cc(-c2[nH]c3ccc(C4CCN(C5CCOCC5)CC4)cc3c2C(C)C)cn2ccnc12` [Example 706, 6-(3-isopropyl-5-(1-(tetrahydro-2H-pyran-4-yl)piperidin-4-yl)-1H-indol-2-yl)-8-methoxyimidazo[1,2-a]pyridine], the figures for the IC50 on human TLR8, against human TLR7 and against human TLR9 were under 100 nM, under 100 nM and 100 to 1000 nM, respectively.

With `CC(C)c1c(-c2n[nH]c3nc[nH]c(=O)c23)[nH]c2ccc(C3CCNCC3)cc12` [Example 21, 3-(3-isopropyl-5-(piperidin-4-yl)-1H-indol-2-yl)-1,5-dihydro-4H-pyrazolo[3,4-d]pyrimidin-4-one], the IC50 is 100 to 1000 nM against human TLR8, 1000 to 50000 nM against human TLR7 and 1000 to 50000 nM against human TLR9.

For the compound `COCCN1CCC(c2ccc3[nH]c(-c4cc(C)n5ncnc5c4)c(C(C)C)c3c2)CC1` [Example 779, 7-(3-isopropyl-5-(1-(2-methoxyethyl)piperidin-4-yl)-1H-indol-2-yl)-5-methyl-[1,2,4]triazolo[1,5-a]pyridine], the IC50 against human TLR8 was under 100 nM; against human TLR7, under 100 nM; against human TLR9, 1000 to 50000 nM.

Consider `Cc1cc(-c2[nH]c3ccc(C4CCN(C(=O)CCN5CC(C)(C)OC(C)(C)C5)CC4)cc3c2C(C)C)cn2nnnc12` [Example 621, 1-(4-(3-isopropyl-2-(8-methyltetrazolo[1,5-a]pyridin-6-yl)-1H-indol-5-yl)piperidin-1-yl)-3-(2,2,6,6-tetramethylmorpholino)propan-1-one], for which the 50% inhibitory concentration (IC50) at human TLR8 is under 100 nM; at human TLR7 it was under 100 nM; on human TLR9, 1000 to 50000 nM.

For `CC(C)c1c(-c2ccc3ncsc3c2)[nH]c2ccc(C3CCNCC3)cc12` [Example 9, 6-(3-isopropyl-5-(piperidin-4-yl)-1H-indol-2-yl) benzo[d]thiazole], the IC50 was under 100 nM at human TLR8, under 100 nM against human TLR7 and 1000 to 50000 nM at human TLR9.

For `CC(C)c1c(-c2ccnc3[nH]ncc23)[nH]c2ccc(C3CCN(C4CCN(C(C)C)CC4)CC3)cc12` [Example 821, 4-(3-isopropyl-5-(1′-isopropyl-[1,4′-bipiperidin]-4-yl)-1H-indol-2-yl)-1H-pyrazolo[3,4-b]pyridine], the half-maximal inhibitory concentration (IC50) at human TLR8, against human TLR7 and on human TLR9 was under 100 nM throughout.

`Cc1cc(-c2[nH]c3ccc(C4CCNCC4)cc3c2C(C)C)cn2cc(C(=O)NC3CC3)nc12` [Example 262, N-cyclopropyl-6-(3-isopropyl-5-(piperidin-4-yl)-1H-indol-2-yl)-8-methylimidazo[1,2-a]pyridine-2-carboxamide]: the half-maximal inhibitory concentration (IC50) at human TLR8 was under 100 nM; against human TLR7, under 100 nM; against human TLR9, 100 to 1000 nM.

Take `CC(C)c1c(-c2ccc3[nH]cnc3c2)[nH]c2ccc(C3CCNCC3)cc12` [Example 50, 5-(3-isopropyl-5-(piperidin-4-yl)-1H-indol-2-yl)-1H-benzo[d]imidazole]: the IC50 was 1000 to 50000 nM at human TLR8, 100 to 1000 nM against human TLR7 and 1000 to 50000 nM against human TLR9.
